Experimental data from patent US6503882B2, “Treatment of HIV” (Trustees of Tufts College, priority 1997, dated 2003).

Assays:
[1] = test system: PBMC from HIV-infected patients; test: Proliferation of PBMC from HIV-infected individuals in vitro, 3H thymidine incorporation; assay type: cell-based, human; conditions: for stimulation of proliferation (incorporation of 3H thymidine, cpm): very low doses, FIG. 1
Procedure: Peripheral blood mononuclear cells (PBMC) were obtained by standard methods from HIV-infected individuals, and from uninfected individuals. Varying dosages of KBP or VBP were contacted with the PBMC in vitro, and stimulation of proliferation was measured by incorporation of ^3H thymidine (cpm).

[2] = test system: T-cells
[3] = relatively low doses (10^−7M), FIG. 2

## NCCCC[C@H](N)C(=O)N1CCC[C@H]1B(O)O [Lys-boroPro]
[1]; higher doses (10^−4M), FIG. 2
  proliferation of PBMC of HIV-infected patients: did not have this effect
[1]; [3]
  proliferation of PBMC of HIV-infected patients: caused proliferation
[1]
  stimulation of proliferation (incorporation of 3H thymidine, cpm): stimulated proliferation

## CC(C)[C@H](N)C(=O)N1CCC[C@H]1B(O)O [Val-boroPro]
[1]; concentrations of 10^−6, FIG. 2
  stimulation of PBMC of HIV-infected patients: there was stimulation
[1]; higher doses (10^−4M), FIG. 2
  proliferation of PBMC of HIV-infected patients: did not have this effect
[1]; [3]
  proliferation of PBMC of HIV-infected patients: caused proliferation
[1]
  stimulation of proliferation (incorporation of 3H thymidine, cpm): stimulated proliferation
[2]
  cytotoxicity: approximately 50%
  cytotoxicity to T-cells: highly cytotoxic
  toxicity observed in vitro: greater than 80%
